Test results published in ChEMBL document CHEMBL5143507, “Small Molecule Kinase Inhibitor Drugs (1995-2021): Medical Indication, Pharmacology, and Synthesis” (J Med Chem, 2022).
pIC50: −log10 of the molar value.

Legend:
[1] = molecular target: Receptor tyrosine-protein kinase erbB-2 (Homo sapiens, UniProt P04626); test: Inhibition of N-terminal GST fused HER2 (679 to 1255 residues) (unknown origin) using poly (Glu-Tyr) E4Y1 peptide as substrate measured after 4 hrs by ADP-Glo reagent method
[2] = molecular target: Epidermal growth factor receptor (Homo sapiens, UniProt P00533); test: Inhibition of N-terminal GST fused EGFR (668 to 1091 residues) (unknown origin) using poly (Glu-Tyr) E4Y1 peptide as substrate incubated for 2 hrs by ADP-Glo reagent method
Chain of Epidermal growth factor receptor (P00533 whole entry, the tested form may be a part): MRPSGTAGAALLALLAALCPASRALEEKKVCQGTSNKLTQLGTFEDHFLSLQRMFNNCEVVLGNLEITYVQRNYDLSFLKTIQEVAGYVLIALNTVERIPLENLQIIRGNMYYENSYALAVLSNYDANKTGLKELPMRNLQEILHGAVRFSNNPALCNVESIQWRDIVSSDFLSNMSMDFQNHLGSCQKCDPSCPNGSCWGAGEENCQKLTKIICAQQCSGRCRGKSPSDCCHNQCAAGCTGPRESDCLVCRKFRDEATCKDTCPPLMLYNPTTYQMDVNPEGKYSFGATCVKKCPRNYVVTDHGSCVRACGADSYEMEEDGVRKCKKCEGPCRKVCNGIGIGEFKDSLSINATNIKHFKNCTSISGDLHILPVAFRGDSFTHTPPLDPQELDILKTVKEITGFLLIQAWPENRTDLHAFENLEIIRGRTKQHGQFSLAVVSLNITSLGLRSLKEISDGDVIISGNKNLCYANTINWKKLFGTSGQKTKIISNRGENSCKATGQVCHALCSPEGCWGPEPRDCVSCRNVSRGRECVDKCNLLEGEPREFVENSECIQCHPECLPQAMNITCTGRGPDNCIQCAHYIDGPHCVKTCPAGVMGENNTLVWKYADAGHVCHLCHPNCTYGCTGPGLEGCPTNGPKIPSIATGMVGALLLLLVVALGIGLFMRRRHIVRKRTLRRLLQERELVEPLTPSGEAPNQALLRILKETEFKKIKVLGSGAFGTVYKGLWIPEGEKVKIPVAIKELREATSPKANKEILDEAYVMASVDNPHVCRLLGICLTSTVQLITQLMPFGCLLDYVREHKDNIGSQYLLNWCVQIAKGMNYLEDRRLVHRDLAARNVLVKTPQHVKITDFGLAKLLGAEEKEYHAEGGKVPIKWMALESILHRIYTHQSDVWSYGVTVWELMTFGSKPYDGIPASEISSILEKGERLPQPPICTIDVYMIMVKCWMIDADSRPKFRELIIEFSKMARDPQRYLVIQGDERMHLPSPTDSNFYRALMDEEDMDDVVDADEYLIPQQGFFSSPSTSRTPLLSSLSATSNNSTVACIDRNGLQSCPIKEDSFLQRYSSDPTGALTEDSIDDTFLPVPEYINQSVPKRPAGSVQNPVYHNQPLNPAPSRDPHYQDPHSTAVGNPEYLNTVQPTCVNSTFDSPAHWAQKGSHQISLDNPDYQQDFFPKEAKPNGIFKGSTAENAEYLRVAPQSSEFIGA

Chain of Receptor tyrosine-protein kinase erbB-2 (P04626 whole entry, the tested form may be a part): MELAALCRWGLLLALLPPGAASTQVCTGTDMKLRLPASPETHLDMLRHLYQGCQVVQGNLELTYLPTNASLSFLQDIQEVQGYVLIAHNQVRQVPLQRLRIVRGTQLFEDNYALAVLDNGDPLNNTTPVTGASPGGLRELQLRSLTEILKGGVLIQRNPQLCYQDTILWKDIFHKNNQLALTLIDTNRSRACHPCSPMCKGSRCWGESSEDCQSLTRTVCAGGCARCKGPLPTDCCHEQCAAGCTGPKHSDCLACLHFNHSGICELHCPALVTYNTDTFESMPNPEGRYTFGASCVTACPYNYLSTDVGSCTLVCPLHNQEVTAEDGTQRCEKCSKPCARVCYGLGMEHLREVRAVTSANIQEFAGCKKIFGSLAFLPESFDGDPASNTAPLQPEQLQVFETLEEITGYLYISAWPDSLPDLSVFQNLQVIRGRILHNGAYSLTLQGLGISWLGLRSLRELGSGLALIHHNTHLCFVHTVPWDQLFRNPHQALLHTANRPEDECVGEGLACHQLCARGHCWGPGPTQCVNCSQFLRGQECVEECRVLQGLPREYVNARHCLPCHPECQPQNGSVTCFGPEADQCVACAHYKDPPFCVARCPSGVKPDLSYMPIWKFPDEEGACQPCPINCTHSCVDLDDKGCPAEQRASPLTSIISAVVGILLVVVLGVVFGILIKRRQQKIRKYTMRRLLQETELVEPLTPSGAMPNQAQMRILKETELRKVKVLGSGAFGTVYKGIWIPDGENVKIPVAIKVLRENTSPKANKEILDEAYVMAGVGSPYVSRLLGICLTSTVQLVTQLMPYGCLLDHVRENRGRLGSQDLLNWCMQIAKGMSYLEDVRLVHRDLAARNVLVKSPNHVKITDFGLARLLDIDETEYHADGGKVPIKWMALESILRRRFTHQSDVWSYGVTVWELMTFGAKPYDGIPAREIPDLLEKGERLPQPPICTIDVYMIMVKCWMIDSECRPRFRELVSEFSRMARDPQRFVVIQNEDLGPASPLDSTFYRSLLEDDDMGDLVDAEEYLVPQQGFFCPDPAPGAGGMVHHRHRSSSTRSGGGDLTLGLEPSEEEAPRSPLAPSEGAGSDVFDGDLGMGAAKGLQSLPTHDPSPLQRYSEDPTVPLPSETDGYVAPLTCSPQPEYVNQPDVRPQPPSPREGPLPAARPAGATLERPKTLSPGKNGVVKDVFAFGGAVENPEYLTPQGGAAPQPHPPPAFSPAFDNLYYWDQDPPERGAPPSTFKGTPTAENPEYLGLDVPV

pIC50 [1]: 8.16
pIC50 [2]: 6.35
SMILES: Cc1cc(Nc2ncnc3ccc(NC4=NC(C)(C)CO4)cc23)ccc1Oc1ccn2ncnc2c1 [TUCATINIB]
